The results in this text go back to patent US5145990A, “Phosphorous containing dhp enzyme inhibitors” (Merck & Co., Inc., priority 1991, dated 1992).

The target in the assay is T1, renal dehydropeptidase I (renal dipeptidase, E.C. 3.4.13.11) (Sus scrofa, UniProt P22412).
T1 construct: solubilized preparation of […] isolated from hog kidneys; from tissue; host or cells: hog kidney
T1 sequence (P22412 17-409): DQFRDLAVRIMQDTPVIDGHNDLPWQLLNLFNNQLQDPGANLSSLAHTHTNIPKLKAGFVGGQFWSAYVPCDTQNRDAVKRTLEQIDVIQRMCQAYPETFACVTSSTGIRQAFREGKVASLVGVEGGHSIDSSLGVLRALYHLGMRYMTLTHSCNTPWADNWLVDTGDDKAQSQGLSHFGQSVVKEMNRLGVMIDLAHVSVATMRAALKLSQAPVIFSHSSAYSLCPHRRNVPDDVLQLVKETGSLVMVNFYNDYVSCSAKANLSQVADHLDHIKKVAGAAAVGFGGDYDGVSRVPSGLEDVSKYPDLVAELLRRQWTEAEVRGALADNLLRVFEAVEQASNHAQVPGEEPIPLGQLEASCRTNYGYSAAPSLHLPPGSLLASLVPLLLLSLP
Put plainly: In vitro screen: inhibition of hydrolysis of glycyldehydrophenylalanine (GDP) by solubilized renal dipeptidase. The format is biochemical. The note with it: Table I, structure II; hog kidney enzyme, GDP 0.05 mM, pH 7.1, 37° C., 275 nm. As for the experimental part: Renal dehydropeptidase activity was first described by M. Bergmann and H. Schleich, Z. Physiol. Chem., 205, 65 (1932); see also B. J. Campbell et al., Biochem. Biophys. Acta, 118, 371 (1966) and references therein.
This measured the ability of compounds to inhibit hydrolysis of glycyldehydrophenylalanine (GDP) by a solubilized preparation of […] isolated from hog kidneys. The procedure is as follows: to a 1 ml system containing 50 mM "MOPS" (3-(N-morpholino)-propanesulfonic acid) buffer, pH 7.1 is added 5 mg of lyophilized enzyme, and the test compound at a final concentration of 0.1 mM. After a five minute incubation of 37° C., GDP is added to a final concentration of 0.05 mM. Incubation is continued for 10 minutes, at 37° C. and hydrolysis of GDP is measured by the change in optical density with time at 275 nm. Inhibition of the enzyme is gauged by comparison to a standard run containing no inhibitor and is expressed as the inhibitor binding constant K. This is the concentration of the inhibitor which achieves 50% inhibition of enzyme.

A word on the Ki: it is a dissociation constant, usually derived from enzyme kinetics or from competition with a known ligand. `CC(C)/C=C(/CP(=O)(O)C(N)CC1CCCCC1)C(=O)O` (centres unmarked) showed a Ki of 21 nM.
In turn, `CC(C)/C=C(\CP(=O)(O)C(N)CC1CCCCC1)C(=O)O` (centres unmarked) gave a Ki of 2.1 nM.
